Data: US20260068885A1, “HERBICIDAL COMPOSITIONS” (BAYER AKTIENGESELLSCHAFT, priority 2022, published 2026)

Assays:
Experiment in all cases: Post-emergence herbicidal action against harmful plants (greenhouse)
Type in all cases: in vivo
[1] = tested on: Xanthium strumarium (XANST); settings: for Herbicidal efficacy [%] against XANST 10 DAT: application rate 0.3 g a.i./ha
[2] = tested on: Emex australis (EMEAU)
Experimental: (§1) Seeds of monocotyledonous and dicotyledonous weed and crop plants are laid out in sandy loam soil in wood-fibre pots, covered with soil and cultivated in a greenhouse under good growth conditions. 2 to 3 weeks after sowing, the test plants are treated at the one-leaf stage. The compounds of the invention, formulated in the form of wettable powders (WP) or as emulsion concentrates (EC), are then sprayed onto the green parts of the plants in the form of an aqueous suspension or emulsion at a water application rate equivalent to 600 to 800 l/ha, with addition of 0.2% wetting agent. After the test plants have been left to stand in the greenhouse under optimal growth conditions for about 3 weeks, the action of the preparations is assessed visually in comparison to untreated controls (herbicidal action in percent (%): 100% activity=the plants have died, 0% activity=like control plants). […] The tables below illustrate, in an illustrative manner, the post-emergence herbicidal action of the compounds of the invention, the herbicidal activity being stated in percent.
(§2) In the tables that follow, the abbreviations mean the following: • E: means the synergism value to be expected according to the Colby formula. • Δ SYN: means the difference between the actual and expected synergism value. • DAT: means days after treatment.

[3] = tested on: Xanthium strumarium (XANST)
Experimental: as §1, §2

[4] = tested on: Sorghum halepense (SORHA)
Experimental: as §1, §2

[5] = tested on: Abutilon theophrasti (ABUTH)
Experimental: as §1, with “[…],” for “left to stand in the greenhouse under optimal growth conditions for about 3 weeks,”
as §2

[6] = tested on: Solanum nigrum (SOLNI)
Experimental: as §1, with “[…],” for “left to stand in the greenhouse under optimal growth conditions for about 3 weeks,”
as §2

[7] = tested on: Brachiaria platyphylla (BRAPP)
Experimental: as §1, §2

[8] = tested on: Polygonum convolvulus (POLCO)
[9] = tested on: Pharbitis purpurea (PHBPU)
[10] = tested on: Cyperus iria (CYPIR)
Experimental: as §1, with “[…],” for “left to stand in the greenhouse under optimal growth conditions for about 3 weeks,”
as §2

[11] = tested on: Setaria viridis (SETVI)
Experimental: as §1, with “[…],” for “left to stand in the greenhouse under optimal growth conditions for about 3 weeks,”
as §2

[12] = tested on: Erigeron bonariensis (ERIBO)
Experimental: as §1, with “[…],” for “left to stand in the greenhouse under optimal growth conditions for about 3 weeks,”
as §2

[13] = tested on: Euphorbia heterophylla (EPHHL); settings: 21 DAT
Experimental: as §1, §2

[14] = application rate 0.00625 g a.i./ha
[15] = application rate 0.025 g a.i./ha
[16] = application rate 0.025 g a.i./ha, 21 DAT

## C=C[C@]1(C(=O)N[C@H]2CO[C@@H](C(=O)OC)C2)CC(c2cc(F)cc(F)c2)=NO1 (relative stereo) [P1, methyl (2R*,4R*)-4-[[(5S)-3-(3,5-difluorophenyl)-5-vinyl-4H-isoxazole-5-carbonyl]amino]tetrahydrofuran-2-carboxylate]
[1]
  Herbicidal efficacy [%] against XANST 10 DAT: 60%
[2]; EMEAU 10 DAT, 1.2 g a.i./ha
  Herbicidal efficacy: 70%
[2]; EMEAU 21 DAT, 1.2 g a.i./ha
  Herbicidal efficacy: 80%
[3]; application rate 0.3 g a.i./ha
  Herbicidal efficacy [%] against XANST 21 DAT: 40%
[4]; application rate 0.3 g a.i./ha
  Herbicidal efficacy [%] against SORHA 21 DAT: 90%
[4]; application rate 1.2 g a.i./ha
  Herbicidal efficacy [%] against SORHA 21 DAT: 90%
[5]; ABUTH 10 DAT, 0.3 g a.i./ha
  Herbicidal efficacy: 70%
[5]; ABUTH 21 DAT, 1.2 g a.i./ha
  Herbicidal efficacy: 85%
[6]; SOLNI 10 DAT, 0.3 g a.i./ha
  Herbicidal efficacy: 40%

## CCn1ncc(C(=O)c2ccc(S(C)(=O)=O)c(OCCOC)c2C)c1OC(C)OC(=O)OC (stereo not shown) [tolpyralate]
[7]; BRAPP 10 DAT, 0.5 g a.i./ha
  Herbicidal efficacy: 30%
[7]; BRAPP 21 DAT, 0.5 g a.i./ha
  Herbicidal efficacy: 20%
[7]; BRAPP 21 DAT, 2 g a.i./ha
  Herbicidal efficacy: 80%
[3]; application rate 0.5 g a.i./ha
  Herbicidal efficacy [%] against XANST 21 DAT: 30%
[3]; application rate 2 g a.i./ha
  Herbicidal efficacy [%] against XANST 21 DAT: 70%
[4]; application rate 2 g a.i./ha
  Herbicidal efficacy [%] against SORHA 10 DAT: 85%
  Herbicidal efficacy [%] against SORHA 21 DAT: 50%
[8]; POLCO 10 DAT, 0.5 g a.i./ha
  Herbicidal efficacy: 30%
[8]; POLCO 21 DAT, 0.5 g a.i./ha
  Herbicidal efficacy: 20%
[9]; PHBPU 10 DAT, 0.5 g a.i./ha
  Herbicidal efficacy: 10%
[9]; PHBPU 21 DAT, 0.5 g a.i./ha
  Herbicidal efficacy: 10%
[10]; CYPIR 10 DAT, 0.5 g a.i./ha
  Herbicidal efficacy: 40%
[10]; CYPIR 21 DAT, 0.5 g a.i./ha
  Herbicidal efficacy: 20%
[10]; CYPIR 21 DAT, 2 g a.i./ha
  Herbicidal efficacy: 30%
[11]; SETVI 21 DAT, 0.5 g a.i./ha
  Herbicidal efficacy: 60%
[11]; SETVI 21 DAT, 2 g a.i./ha
  Herbicidal efficacy: 88%
[12]; ERIBO 10 DAT, 2 g a.i./ha
  Herbicidal efficacy: 90%
[12]; ERIBO 21 DAT, 2 g a.i./ha
  Herbicidal efficacy: 85%
[6]; application rate 0.5 g a.i./ha, 21 DAT
  Herbicidal efficacy [%] against SOLNI 21 DAT: 85%

## C=C[C@]1(C(=O)N[C@H]2C=C[C@@H](C(=O)OC)C2)CC(c2cc(F)cc(F)c2)=NO1 [P2, methyl (1S,4R)-4-[[(5S)-3-(3,5-difluorophenyl)-5-vinyl-4H-isoxazole-5-carbonyl]amino]cyclopent-2-ene-1-carboxylate]
[1]
  Herbicidal efficacy [%] against XANST 10 DAT: 20%
[2]; EMEAU 21 DAT, 0.3 g a.i./ha
  Herbicidal efficacy: 88%
[2]; EMEAU 21 DAT, 1.2 g a.i./ha
  Herbicidal efficacy: 88%
[7]; BRAPP 21 DAT, 0.3 g a.i./ha
  Herbicidal efficacy: 85%
[3]; application rate 0.3 g a.i./ha
  Herbicidal efficacy [%] against XANST 21 DAT: 10%
[4]; application rate 0.3 g a.i./ha
  Herbicidal efficacy [%] against SORHA 10 DAT: 80%
[8]; POLCO 21 DAT, 0.3 g a.i./ha
  Herbicidal efficacy: 90%
[10]; CYPIR 10 DAT, 0.3 g a.i./ha
  Herbicidal efficacy: 50%
[10]; CYPIR 10 DAT, 1.2 g a.i./ha
  Herbicidal efficacy: 88%
[10]; CYPIR 21 DAT, 0.3 g a.i./ha
  Herbicidal efficacy: 40%
[10]; CYPIR 21 DAT, 1.2 g a.i./ha
  Herbicidal efficacy: 88%
[12]; ERIBO 10 DAT, 0.3 g a.i./ha
  Herbicidal efficacy: 0%
[12]; ERIBO 21 DAT, 0.3 g a.i./ha
  Herbicidal efficacy: 0%
[5]; ABUTH 10 DAT, 0.3 g a.i./ha
  Herbicidal efficacy: 20%
[5]; ABUTH 10 DAT, 1.2 g a.i./ha
  Herbicidal efficacy: 30%
[5]; ABUTH 21 DAT, 0.3 g a.i./ha
  Herbicidal efficacy: 10%
[5]; ABUTH 21 DAT, 1.2 g a.i./ha
  Herbicidal efficacy: 20%
[6]; SOLNI 10 DAT, 0.3 g a.i./ha
  Herbicidal efficacy: 60%
[6]; SOLNI 21 DAT, 1.2 g a.i./ha
  Herbicidal efficacy: 40%

## Cc1cccc(C)c1-n1c(=O)c2cc(C(=O)C3C(=O)CCCC3=O)ccc2n(C)c1=O [benquitrione]
[1]; application rate 6 g a.i./ha, 21 DAT
  Herbicidal efficacy [%] against XANST 21 DAT: 50%
[7]; BRAPP 10 DAT, 1.5 g a.i./ha
  Herbicidal efficacy: 20%
[7]; BRAPP 10 DAT, 6 g a.i./ha
  Herbicidal efficacy: 80%
[7]; BRAPP 21 DAT, 1.5 g a.i./ha
  Herbicidal efficacy: 10%
[7]; BRAPP 21 DAT, 6 g a.i./ha
  Herbicidal efficacy: 20%
[4]; application rate 1.5 g a.i./ha
  Herbicidal efficacy [%] against SORHA 10 DAT: 10%
  Herbicidal efficacy [%] against SORHA 21 DAT: 0%
[4]; application rate 6 g a.i./ha
  Herbicidal efficacy [%] against SORHA 10 DAT: 20%
  Herbicidal efficacy [%] against SORHA 21 DAT: 10%
[8]; POLCO 10 DAT, 6 g a.i./ha
  Herbicidal efficacy: 20%
[9]; PHBPU 10 DAT, 6 g a.i./ha
  Herbicidal efficacy: 40%
[9]; PHBPU 21 DAT, 6 g a.i./ha
  Herbicidal efficacy: 20%
[10]; CYPIR 10 DAT, 1.5 g a.i./ha
  Herbicidal efficacy: 40%
[10]; CYPIR 21 DAT, 1.5 g a.i./ha
  Herbicidal efficacy: 30%
[11]; SETVI 10 DAT, 6 g a.i./ha
  Herbicidal efficacy: 88%
[11]; SETVI 21 DAT, 1.5 g a.i./ha
  Herbicidal efficacy: 50%
[12]; ERIBO 10 DAT, 6 g a.i./ha
  Herbicidal efficacy: 85%
[12]; ERIBO 21 DAT, 6 g a.i./ha
  Herbicidal efficacy: 85%
[5]; ABUTH 10 DAT, 1.5 g a.i./ha
  Herbicidal efficacy: 20%
[5]; ABUTH 10 DAT, 6 g a.i./ha
  Herbicidal efficacy: 40%
[5]; ABUTH 21 DAT, 6 g a.i./ha
  Herbicidal efficacy: 10%
[6]; SOLNI 21 DAT, 6 g a.i./ha
  Herbicidal efficacy: 85%

## COC(=O)[C@@H](C)O/N=C/c1cc(-n2c(=O)cc(C(F)(F)F)n(C)c2=O)c(F)cc1Cl [flufenoximacil]
[2]; application rate 0.00625 g a.i./ha, 10 DAT
  Herbicidal efficacy [%] against EMEAU 10 DAT: 50%
[2]; application rate 0.00625 g a.i./ha, 21 DAT
  Herbicidal efficacy [%] against EMEAU 21 DAT: 10%
[13]; [14]
  Herbicidal efficacy [%] against EPHHL 21 DAT: 40%
[13]; [15]
  Herbicidal efficacy [%] against EPHHL 21 DAT: 88%
[3]; [14]
  Herbicidal efficacy [%] against XANST 21 DAT: 10%
[4]; [14]
  Herbicidal efficacy [%] against SORHA 10 DAT: 20%
[8]; [16]
  Herbicidal efficacy [%] against POLCO 21 DAT: 60%
[9]; [16]
  Herbicidal efficacy [%] against PHBPU 21 DAT: 75%
[12]; [15]
  Herbicidal efficacy [%] against ERIBO 21 DAT: 40%
[12]; application rate 0.1 g a.i./ha
  Herbicidal efficacy [%] against ERIBO 21 DAT: 60%
